# Experimental data published in patent US8697729B2, “Small molecules modulator of epigenetic regulation and their therapeutic applications” (University of Southern California, priority 2008, dated 2014).
# Entries after “also recorded” stand apart in the source; their conditions may differ.
# Experiments:
# MEF2 = experiment: in vitro binding, method not stated
# frataxin expression = conditions: Friedreich's ataxia; cited from earlier work
# MEF2A (1-95) = target: T1, MEF2A (1-95) (Homo sapiens, UniProt Q02078); experiment: Surface plasmon resonance (Biacore T-100) competition: MEF2A (1-95) binding to immobilized HDAC4 (aa 155-220); conditions: for binding of MEF2A to immobilized HDAC4 after incubation with compound: Biacore, increasing concentrations (FIG. 5)
# T1 construct: purified MEF2A (1-95) was used as the analyte
# T1 sequence (Q02078 1-95): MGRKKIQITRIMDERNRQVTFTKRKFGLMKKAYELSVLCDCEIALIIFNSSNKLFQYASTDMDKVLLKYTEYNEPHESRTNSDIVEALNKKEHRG
# Source text: Here HDAC4 (aa 155-220) was immobilized on a CM5 sensor chip and purified MEF2A (1-95) was used as the analyte. The binding of MEF2A to HDAC4 at various concentrations generated a series of well-defined sensorgrams (data not shown). […] These technical limitations made it difficult to obtain a quantitative binding constant.
# HDAC4:MEF2 interaction = target: T2, HDAC4:MEF2 interaction (Homo sapiens, UniProt Q14814); experiment: Mammalian two-hybrid luciferase reporter assay (GAL4-MEF2D / HDAC4-VP16 / GAL4Luc); format: cell-based
# T2 sequence (Q14814 1-521): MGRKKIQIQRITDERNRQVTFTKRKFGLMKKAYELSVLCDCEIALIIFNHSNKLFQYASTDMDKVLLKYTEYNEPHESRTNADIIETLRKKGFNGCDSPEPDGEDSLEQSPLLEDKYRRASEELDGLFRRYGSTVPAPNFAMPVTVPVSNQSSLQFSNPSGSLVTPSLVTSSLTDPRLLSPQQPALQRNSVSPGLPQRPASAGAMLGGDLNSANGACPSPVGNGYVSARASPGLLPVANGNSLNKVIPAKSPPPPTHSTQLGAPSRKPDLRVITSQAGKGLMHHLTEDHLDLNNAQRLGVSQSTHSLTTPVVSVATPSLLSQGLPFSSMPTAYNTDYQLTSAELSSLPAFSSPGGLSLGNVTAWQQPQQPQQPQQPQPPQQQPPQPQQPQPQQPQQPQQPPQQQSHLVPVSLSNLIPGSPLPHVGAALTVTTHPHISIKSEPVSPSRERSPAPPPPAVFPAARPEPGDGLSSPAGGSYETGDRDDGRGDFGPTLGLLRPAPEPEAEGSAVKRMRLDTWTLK
# Source text: In a preferred embodiment, there is disclosed herein a two-hybrid system based assay includes a binding domain fused with a bait, an activating domain fused with a prey, and a reporter gene; and determining a reporter signal level.
# A series of MEF2-dependent luciferase reporter assays with transiently transfected MEF2D, HDAC4 and the co-activator p300 were used initially to screen various compounds. But these assays gave weak signal and high frequency of false positives, probably due to the complex transcription activation mechanisms of MEF2 and interference from endogenous factors. Through these observations, it was discovered that a highly sensitive and specific assay that can recapitulate the molecular interaction between HDAC4 and MEF2 inside cells is essential.
# Taking advantage of the structural insights, in addition to the MEF2D L67D mutant mentioned above, we introduced a number mutations in HDAC4 that had been previously shown to disrupt HDAC4:MEF2 interaction in vitro. These mutations also diminished the luciferase signal in the cell-based assay (FIG. 3b).
# [1] = tested on: acetylation of histone but not tubulin; conditions: cited from earlier work
# GAL4-VP16 = conditions: 10 μM; non-specific inhibition
# HDAC = conditions: cited from earlier work
compound,measurement,setting,value
HDAC4 mutant Val180Lys (in vitro binding) (from UniProt P56524 155-220),Kd,MEF2,810 nM
same,weakening of binding against wild type HDAC4,MEF2,60%
"Nc1ccccc1NC(=O)CCCCCC(=O)Nc1ccccc1 [PAOA, pimeloylanilide orthoaminoanilide]",frataxin expression / induction,frataxin expression,enhance the expression of frataxin
same,binding of MEF2A to immobilized HDAC4 after incubation with compound,MEF2A (1-95),dose dependent decrease; also recorded: binds MEF2 competitively with HDAC4
same,expression of HDAC4-VP16,HDAC4:MEF2 interaction,did not affect
same,decrease of reporter signal driven by GAL4-MEF2D and HDAC4-VP16,HDAC4:MEF2 interaction; 10 μM,about 26 fold
same,inhibition of the reporter signal in the mammalian two-hybrid assay,"HDAC4:MEF2 interaction; GAL4-MEF2D/HDAC4-VP16, Hela cells",inhibited the reporter signal in a dose dependent manner
same,IC50,HDAC4:MEF2 interaction; based on the mammalian two-hybrid assay,~5000 nM
same,Kd,"HDAC4:MEF2 interaction; estimated assuming equilibrium HDAC4 concentration ~0.5 μM and HDAC4:MEF2 Kd 0.47 μM, read-out: Kd for binding to MEF2 (estimated)",~5000 nM
same,selective induction of histone versus tubulin acetylation,[1],selectively induce acetylation of histone but not tubulin
same,reduction of reporter signal driven by GAL4-VP16,GAL4-VP16,5.6 fold
"Cc1ccc(NC(=O)CCCCCC(=O)Nc2ccccc2N)cc1 [compound 106, N^1-(2-aminophenyl)-N^7-p-tolylheptanediamide]",frataxin expression / induction,frataxin expression,very active
wild type HDAC4 (in vitro binding) (from UniProt P56524 155-220),Kd,MEF2,470 nM
"O=C(CCCCCCC(=O)Nc1ccccc1)NO [SAHA, Vorinostat]",frataxin expression / induction,frataxin expression,no effect; also recorded: did not have this type of activity
"Nc1ccccc1NC(=O)CCCCCCC(=O)Nc1ccccc1 [BML-210, suberoylanilide orthoaminoanilide]",direct binding to MEF2 by Biacore,MEF2A (1-95),beyond the detection limit
same,binding of MEF2A to immobilized HDAC4 after incubation with compound,MEF2A (1-95),bind MEF2 competitively with HDAC4; also recorded: competitive inhibition
same,normalized luciferase activity in MEF2-HDAC luciferase reporter assay,HDAC4:MEF2 interaction; 24 hrs after treatment (FIG. 4),decreased in a dose dependent manner
"CC(/C=C/C(=O)NO)=C\[C@@H](C)C(=O)c1ccc(N(C)C)cc1 [trichostatin A (TSA), trichostatin A]",frataxin expression / induction,frataxin expression,no effect
same,IC50 HDAC inhibition,HDAC,low nanomolar range
